For nine molecules, IC50 and Selectivity results are on record in US9533985B2, “Sulfonamide derivative and medicinal use thereof” (EA Pharma Co., Ltd., priority 2012, dated 2017).

What all share (format): cell-based
One test deals with α4β1 integrin (Homo sapiens (Human), UniProt P05556+P13612). Briefly: VCAM-1/α4β1 integrin binding inhibitory activity evaluation test (Jurkat cell adhesion to VCAM-1/Fc). The conditions noted are these: Jurkat cells binding to recombinant human VCAM-1/Fc. How it is done:
The ability of test substances to inhibit the binding of a human T-cell line, Jurkat, which is known to express α4β1 integrin, to VCAM-1 was measured. To 96-well microtiter plates, recombinant human VCAM-1/Fc (R&D systems) solution (1 μg/mL) diluted with buffer A (carbonate buffer, pH 9.6) was added at 50 μL/well, followed by incubation at 4° C. overnight. After washing once with PBS, Block Ace (Snow Brand Milk Products Company, Limited) was added at 150 μL/well, followed by incubation at room temperature for 2 hours. After removal, washing was conducted once with PBS. 100 μL of each test substance diluted with a binding buffer (DMEM containing 40 mM HEPES, 0.2% BSA, and 4 mM MnCl2) to various concentrations and 100 μL of the Jurkat cells (2×10^6 cell/mL) were added to the plates coated with VCAM-1/Fc (5×10^5 cells/well), followed by incubation at 30° C. for 15 minutes to 60 minutes. After the cells were bound to each well, unbound cells were removed by washing with PBS. To the plates, buffer C (PBS containing 1.5% Triton X-100) was added at 50 μL/well to lyse the bound Jurkat cells. To 30 μL of the cell lysate, 30 μL of Substrate Buffer (Promega, CytoTox 96 Non-Radioactive Cytotoxicity Assay) was added, and the reaction was allowed to proceed at room temperature in a dark place for 30 minutes. To each well, 30 μL of Stop Solution (Promega, CytoTox 96 Non-Radioactive Cytotoxicity Assay) was added, and the absorbance at 490 nm was measured by using a plate reader. Here, by the obtained absorbance, the activity of the lactate dehydrogenase (LDH) dissolved into the supernatant of each well was detected. In other words, the absorbance was proportional to the number of the Jurkat cells bound to VCAM-1 and remaining on the plate. The test was duplicated. The binding ratios of the cells at various concentrations were determined, with the absorbance of a well containing no test substances taken as 100%. Then, the concentration IC50, at which 50% binding inhibition was achieved, was calculated. […] Note that, among the compounds synthesized in the corresponding Examples, the compounds in the free form (Compounds A-1 to A-39) were used as the test compounds. Hereinafter, the same shall apply.

For test [1], the target named is T1, α4β7 integrin (Homo sapiens (Human), UniProt P13612+P26010). Briefly: MAdCAM-1/α4β7 integrin binding inhibitory activity evaluation test (RPMI-8866 cell adhesion to MAdCAM-1/Fc). As to conditions: for Selectivity: IC50 in VCAM-1/α4β1 test divided by IC50 in MAdCAM-1/α4β7 test; for pIC50: RPMI-8866 cells binding to recombinant mouse MAdCAM-1/Fc, no serum. How it is done: The ability of test substances to inhibit the binding of a human B cell line, RPMI-8866, which is known to express α4β7 integrin, to MAdCAM-1 was measured. To 96-well microtiter plates, recombinant mouse MAdCAM-1/Fc (R&D systems) solution (0.75 μg/mL) diluted with buffer A (carbonate buffer solution, pH 9.6) was added at 50 μL/well, followed by incubation at 4° C. overnight. After washing once with PBS, Block Ace (Snow Brand Milk Products Company, Limited) was added at 150 μL/well, followed by incubation at room temperature for 2 hours. After removal, washing was conducted once with PBS. 100 μL of each test substance diluted with binding buffer (DMEM containing 40 mM HEPES, 0.2% BSA, and 4 mM MnCl2) to various concentrations and 100 μL of RPMI-8866 cells (2×10^6 cell/mL) were added to the plates coated with MAdCAM-1/Fc (5×10^5 cells/well), followed by incubation at 30° C. for 15 minutes to 60 minutes. After the cells were bound to each well, unbound cells were removed by washing with PBS. To the plates, buffer C (PBS containing 1.5% Triton X-100) was added at 50 μL/well to lyse the bound RPMI-8866 cells. To 30 μL of the cell lysate, 30 μL of Substrate Buffer (Promega, CytoTox 96 Non-Radioactive Cytotoxicity Assay) was added, and the reaction was allowed to proceed at room temperature in a dark place for 30 minutes. To each well, 30 μL of Stop Solution (Promega, CytoTox 96 Non-Radioactive Cytotoxicity Assay) was added, and the absorbance at 490 nm was measured by using a plate reader. Here, by the obtained absorbance, the activity of the lactate dehydrogenase (LDH) dissolved into the supernatant of each well was detected. In other words, the absorbance was proportional to the number of the RPMI-8866 cells bound to MAdCAM-1 and remaining on the plate. The test was duplicated. The binding ratios of the cells at various concentrations were determined, with the absorbance of a well containing no test substance taken as 100%. Then, the concentration IC50, at which 50% binding inhibition was achieved, was calculated. […] Note that the selectivity in the table was determined by dividing the IC50 value in VCAM-1/α4β1 Integrin Binding Inhibitory Activity Evaluation Test by the IC50 value in the MAdCAM-1/α4β7 integrin binding inhibitory activity evaluation test.
T1 sequence (P13612 34-1032): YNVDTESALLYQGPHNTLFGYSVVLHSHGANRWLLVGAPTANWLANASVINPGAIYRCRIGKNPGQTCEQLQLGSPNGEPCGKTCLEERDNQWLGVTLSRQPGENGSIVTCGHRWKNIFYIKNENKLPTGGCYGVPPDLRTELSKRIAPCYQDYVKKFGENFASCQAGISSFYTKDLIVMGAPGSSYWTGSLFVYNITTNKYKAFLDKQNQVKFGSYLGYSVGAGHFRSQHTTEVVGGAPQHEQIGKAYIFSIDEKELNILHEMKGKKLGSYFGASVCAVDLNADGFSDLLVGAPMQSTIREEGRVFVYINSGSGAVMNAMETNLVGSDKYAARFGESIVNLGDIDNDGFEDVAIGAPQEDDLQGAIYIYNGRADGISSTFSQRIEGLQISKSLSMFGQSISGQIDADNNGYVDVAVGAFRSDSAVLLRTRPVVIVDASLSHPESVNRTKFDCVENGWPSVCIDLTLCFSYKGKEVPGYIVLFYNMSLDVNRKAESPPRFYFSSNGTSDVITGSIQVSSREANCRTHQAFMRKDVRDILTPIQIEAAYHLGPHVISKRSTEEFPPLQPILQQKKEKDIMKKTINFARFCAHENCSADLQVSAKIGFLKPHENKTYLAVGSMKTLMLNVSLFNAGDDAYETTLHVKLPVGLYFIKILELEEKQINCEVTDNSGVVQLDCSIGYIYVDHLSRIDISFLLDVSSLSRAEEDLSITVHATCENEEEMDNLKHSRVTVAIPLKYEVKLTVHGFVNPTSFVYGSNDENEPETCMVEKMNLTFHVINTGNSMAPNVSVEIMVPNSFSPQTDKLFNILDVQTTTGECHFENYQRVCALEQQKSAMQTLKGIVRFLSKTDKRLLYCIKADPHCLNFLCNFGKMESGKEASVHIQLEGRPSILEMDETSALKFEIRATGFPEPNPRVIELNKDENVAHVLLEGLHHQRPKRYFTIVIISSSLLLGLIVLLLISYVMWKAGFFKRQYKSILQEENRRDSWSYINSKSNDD
T1 sequence (P26010 20-798): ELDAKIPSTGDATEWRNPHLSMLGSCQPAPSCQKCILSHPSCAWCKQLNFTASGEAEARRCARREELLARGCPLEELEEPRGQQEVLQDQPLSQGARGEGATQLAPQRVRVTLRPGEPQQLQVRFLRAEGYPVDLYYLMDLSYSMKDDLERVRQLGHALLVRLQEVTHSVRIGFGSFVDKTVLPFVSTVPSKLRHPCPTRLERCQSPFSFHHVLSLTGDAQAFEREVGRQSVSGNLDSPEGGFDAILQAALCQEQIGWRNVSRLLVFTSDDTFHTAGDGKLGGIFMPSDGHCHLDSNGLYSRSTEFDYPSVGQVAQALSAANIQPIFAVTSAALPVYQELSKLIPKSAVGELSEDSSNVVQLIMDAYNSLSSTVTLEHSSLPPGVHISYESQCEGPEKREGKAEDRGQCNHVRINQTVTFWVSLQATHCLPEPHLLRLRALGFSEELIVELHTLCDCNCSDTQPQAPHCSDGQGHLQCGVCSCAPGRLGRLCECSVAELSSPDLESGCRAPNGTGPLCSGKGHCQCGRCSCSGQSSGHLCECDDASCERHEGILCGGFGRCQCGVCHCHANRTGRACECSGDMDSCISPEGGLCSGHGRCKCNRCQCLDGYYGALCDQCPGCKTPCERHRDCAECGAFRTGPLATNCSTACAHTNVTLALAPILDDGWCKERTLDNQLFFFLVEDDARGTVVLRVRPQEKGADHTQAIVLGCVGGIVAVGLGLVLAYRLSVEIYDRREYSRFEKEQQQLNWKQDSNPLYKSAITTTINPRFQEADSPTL

In test [2] the target is T1, α4β7 integrin. Briefly: MAdCAM-1/α4β7 integrin binding inhibitory activity evaluation test in the presence of serum (1). The conditions noted are these: RPMI-8866 cells binding to mouse MAdCAM-1/Fc, human serum at final concentration of 50%; read-out: α4β7 with serum added, IC50. The method, then: The ability of test substances to inhibit the binding of a human B cell line, RPMI-8866, which is known to express α4β7 integrin, to MAdCAM-1 was measured. To 96-well microtiter plates, recombinant mouse MAdCAM-1/Fc (R&D systems) solution (1 μg/mL) diluted with buffer A (carbonate buffer, pH 9.6) was added at 50 μL/well, followed by incubation at 4° C. overnight. After washing once with PBS, Block Ace (Snow Brand Milk Products Company, Limited) was added at 150 μL/well, followed by incubation at room temperature for 2 hours. After removal, washing was conducted once with PBS. 100 μL of each test substance diluted with a binding buffer (DMEM containing 40 mM HEPES, 0.2% BSA, and 4 mM MnCl2) to various concentrations and 100 μL of RPMI-8866 cells (2×10^6 cell/mL) were added to plates coated with MAdCAM-1/Fc (5×10^5 cells/well) with human serum being contained at a final concentration of 50%, followed by incubation at 30° C. for 15 minutes to 60 minutes. After the cells were bound to each well, unbound cells were removed by washing with PBS. To the plates, buffer C (PBS containing 1.5% Triton X-100) was added at 50 μL/well to lyse the bound RPMI-8866 cells. To 30 μL of the cell lysate, 30 μL of Substrate Buffer (Promega, CytoTox 96 Non-Radioactive Cytotoxicity Assay) was added, and the reaction was allowed to proceed at room temperature in a dark place for 30 minutes. To each well, 30 μL of Stop Solution (Promega, CytoTox 96 Non-Radioactive Cytotoxicity Assay) was added, and the absorbance at 490 nm was measured by using a plate reader. Here, by the obtained absorbance, the activity of the lactate dehydrogenase (LDH) dissolved into the supernatant of each well was detected. In other words, the absorbance was proportional to the number of the RPMI-8866 cells bound to MAdCAM-1 and remaining on the plate. The test was duplicated. The binding ratios of the cells at various concentrations were determined, with the absorbance of a well containing no test substance taken as 100%. Then, the concentration IC50, at which 50% binding inhibition was achieved, was calculated.

Broadly, the pIC50 is the negative decadic logarithm of the IC50, by convention in mol/L.

pIC50: −log10 of the molar value.

Chain of α4β1 integrin (P13612 34-1032): as the sequence (P13612 34-1032) above
Chain of α4β1 integrin (P05556 21-798): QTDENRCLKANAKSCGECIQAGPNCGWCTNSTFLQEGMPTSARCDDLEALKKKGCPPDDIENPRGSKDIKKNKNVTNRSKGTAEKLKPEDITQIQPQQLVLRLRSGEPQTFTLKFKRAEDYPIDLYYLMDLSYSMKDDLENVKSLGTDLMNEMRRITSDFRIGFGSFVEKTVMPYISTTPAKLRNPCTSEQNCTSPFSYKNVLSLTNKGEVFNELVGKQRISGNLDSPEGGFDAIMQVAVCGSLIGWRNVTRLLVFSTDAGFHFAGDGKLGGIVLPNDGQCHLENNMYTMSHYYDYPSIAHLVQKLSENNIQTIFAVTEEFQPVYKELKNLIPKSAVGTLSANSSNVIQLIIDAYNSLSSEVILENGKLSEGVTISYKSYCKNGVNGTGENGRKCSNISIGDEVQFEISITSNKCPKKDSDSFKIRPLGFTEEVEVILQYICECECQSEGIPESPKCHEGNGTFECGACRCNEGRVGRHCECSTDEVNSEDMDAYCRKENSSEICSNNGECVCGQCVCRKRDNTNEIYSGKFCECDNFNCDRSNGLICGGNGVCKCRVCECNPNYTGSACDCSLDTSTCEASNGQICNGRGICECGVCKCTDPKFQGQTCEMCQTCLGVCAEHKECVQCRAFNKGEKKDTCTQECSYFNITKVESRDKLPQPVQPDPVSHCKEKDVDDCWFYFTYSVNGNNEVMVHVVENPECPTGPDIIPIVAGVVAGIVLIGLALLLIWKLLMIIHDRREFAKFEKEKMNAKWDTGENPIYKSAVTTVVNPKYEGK

With `Cn1c(=O)n(-c2ccc(C[C@H](NC(=O)c3c(F)cc(NS(=O)(=O)c4ccc(-n5cccc5)cc4)cc3F)C(=O)O)cc2)c(=O)c2ccncc21` [Example 43, N-[2,6-Difluoro-4-({[4-(1H-pyrrol-1-yl)phenyl]sulfonyl}amino)benzoyl]-4-(1-methyl-2,4-dioxo-1,4-dihydropyrido[3,4-d]pyrimidin-3(2H)-yl)-L-phenylalanine], the figures for the pIC50 at α4β1 integrin, on α4β7 integrin [1] and at α4β7 integrin [2] were 6.66, 9.05 and 7.92, respectively. At α4β7 integrin [1], this molecule yielded a Selectivity of 240.

For `Cc1cc(-c2ccc(S(=O)(=O)Nc3cc(F)c(C(=O)N[C@@H](Cc4ccc(-n5c(=O)c6ccncc6n(C)c5=O)cc4)C(=O)O)c(F)c3)cc2)cc(C)n1` [Example 70, N-[4-({[4-(2,6-Dimethylpyridin-4-yl)phenyl]sulfonyl}amino)-2,6-difluorobenzoyl]-4-(1-methyl-2,4-dioxo-1,4-dihydropyrido[3,4-d]pyrimidin-3(2H)-yl)-L-phenylalanine], the pIC50 at α4β1 integrin is 6.57; at α4β7 integrin [1], 9.39; on α4β7 integrin [2], 7.68. Besides, the Selectivity at α4β7 integrin [1] turned out to be 660.

On to `Cn1c(=O)n(-c2ccc(C[C@H](NC(=O)c3c(F)cc(NS(=O)(=O)c4ccc(-n5ccnn5)cn4)cc3F)C(=O)O)cc2)c(=O)c2ccncc21` [Example 71, N-[2,6-Difluoro-4-({[5-(1H-1,2,3-triazol-1-yl)pyridin-2-yl]sulfonyl}amino)benzoyl]-4-(1-methyl-2,4-dioxo-1,4-dihydropyrido[3,4-d]pyrimidin-3(2H)-yl)-L-phenylalanine], for which the pIC50 is 7.66 at α4β1 integrin, 10.01 at α4β7 integrin [1] and 9.14 at α4β7 integrin [2]. Also, on α4β7 integrin [1], the Selectivity worked out at 220.

For `Cn1c(=O)n(-c2ccc(C[C@H](NC(=O)c3c(F)cc(NS(=O)(=O)c4ccc(-c5ncc[nH]5)cc4)cc3F)C(=O)O)cc2)c(=O)c2ccncc21` [Example 48, N-[2,6-Difluoro-4-({[4-(1H-imidazol-2-yl)phenyl]sulfonyl}amino)benzoyl]-4-(1-methyl-2,4-dioxo-1,4-dihydropyrido[3,4-d]pyrimidin-3(2H)-yl)-L-phenylalanine], the pIC50 at α4β1 integrin was 7.27; at α4β7 integrin [1], 9.62; on α4β7 integrin [2], 7.85. Also, the Selectivity at α4β7 integrin [1] is 230.

As to `Cn1c(=O)n(-c2ccc(C[C@H](NC(=O)c3c(F)cc(NS(=O)(=O)c4ccc(-n5cccn5)cc4)cc3F)C(=O)O)cc2)c(=O)c2ccncc21` [Example 62, N-[2,6-Difluoro-4-({[4-(1H-pyrazol-1-yl)phenyl]sulfonyl}amino)benzoyl]-4-(1-methyl-2,4-dioxo-1,4-dihydropyrido[3,4-d]pyrimidin-3(2H)-yl)-L-phenylalanine], the pIC50 at α4β1 integrin is 7.00; on α4β7 integrin [1] it was 9.19; on α4β7 integrin [2], 7.89. The molecule further came in with a Selectivity at α4β7 integrin [1] of 160.

`Cn1c(=O)n(-c2ccc(C[C@H](NC(=O)c3c(F)cc(NS(=O)(=O)c4ccc(-n5cncn5)nc4)cc3F)C(=O)O)cc2)c(=O)c2ccncc21` [Example 55, N-[2,6-Difluoro-4-({[6-(1H-1,2,4-triazol-1-yl)pyridin-3-yl]sulfonyl}amino)benzoyl]-4-(1-methyl-2,4-dioxo-1,4-dihydropyrido[3,4-d]pyrimidin-3(2H)-yl)-L-phenylalanine]: the negative-log IC50 (pIC50) on α4β1 integrin is 7.35; at α4β7 integrin [1] it was 9.57; on α4β7 integrin [2], 8.34. On α4β7 integrin [1], this molecule had a Selectivity of 170.

As for `Cc1cc(-c2ccc(S(=O)(=O)Nc3cc(F)c(C(=O)N[C@@H](Cc4ccc(-n5c(=O)c6ccncc6n(C)c5=O)cc4)C(=O)O)c(F)c3)cc2)ccn1` [Example 49, N-[2,6-Difluoro-4-({[4-(2-methylpyridin-4-yl)phenyl]sulfonyl}amino)benzoyl]-4-(1-methyl-2,4-dioxo-1,4-dihydropyrido[3,4-d]pyrimidin-3(2H)-yl)-L-phenylalanine], the pIC50 is 6.48 at α4β1 integrin, 9.37 at α4β7 integrin [1] and 7.60 on α4β7 integrin [2]. Further, the Selectivity at α4β7 integrin [1] worked out at 770.

Regarding `Cn1c(=O)n(-c2ccc(C[C@H](NC(=O)c3c(F)cc(NS(=O)(=O)c4ccc(-c5ccnc(F)c5)cc4)cc3F)C(=O)O)cc2)c(=O)c2ccncc21` [Example 68, N-[2,6-Difluoro-4-({[4-(2-fluoropyridin-4-yl)phenyl]sulfonyl}amino)benzoyl]-4-(1-methyl-2,4-dioxo-1,4-dihydropyrido[3,4-d]pyrimidin-3(2H)-yl)-L-phenylalanine], the negative-log IC50 (pIC50) on α4β1 integrin was 6.92; on α4β7 integrin [1] it was 9.89; at α4β7 integrin [2], 8.01. For the same molecule, the Selectivity on α4β7 integrin [1] amounted to 920.

For the molecule `Cn1ccc(=O)n(-c2ccc(C[C@H](NC(=O)c3c(F)cc(NS(=O)(=O)c4ccc(C(=O)NC5CC5)cc4)cc3F)C(=O)O)cc2)c1=O` [Example 45, N-{4-[({4-[(Cyclopropylamino)carbonyl]phenyl}sulfonyl)amino]-2,6-difluorobenzoyl}-4-(3-methyl-2,6-dioxo-3,6-dihydropyrimidin-1(2H)-yl)-L-phenylalanine], the pIC50 was 6.30 at α4β1 integrin, 9.01 at α4β7 integrin [1] and 7.68 at α4β7 integrin [2]. This molecule also showed a Selectivity at α4β7 integrin [1] of 520.
